Laboratory results taken from PubChem BioAssay (NCI).
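Following 48 hours of exposure in 96-well plates, responses at five concentrations were used to interpolate endpoints linearly. TGI marks complete inhibition of growth.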

How the values were obtained:
Assay in all cases: DTP human tumour cell line panel, 48 h
SW-620 colon = test system: SW-620 colon
OVCAR-4 ovarian = test system: OVCAR-4 ovarian
TK-10 renal = test system: TK-10 renal
HCT-15 colon = test system: HCT-15 colon
HCC-2998 colon = test system: HCC-2998 colon
SF-268 CNS = test system: SF-268 CNS
SNB-75 CNS = test system: SNB-75 CNS
K-562 leukemia = test system: K-562 leukemia
SR leukemia = test system: SR leukemia
MDA-MB-231 breast = test system: MDA-MB-231 breast
DU-145 prostate = test system: DU-145 prostate
HS 578T breast = test system: HS 578T breast

Measured: TGI

Cn1cc(C(=O)NCCC(=N)N)cc1NC(=O)C1=[N+](C)C=C(NC(=O)c2cccc(C(=O)NC3=CC(C(=O)Nc4cc(C(=O)NCCC(=N)N)cn4C)=[N+](C)C3)c2)C1
> 100 µM: SW-620 colon | OVCAR-4 ovarian | TK-10 renal | HCT-15 colon | HCC-2998 colon | SF-268 CNS | SNB-75 CNS | K-562 leukemia | SR leukemia

CN(C)Nc1cc(=O)[nH]c(=O)[nH]1
> 100 µM: SW-620 colon | OVCAR-4 ovarian | TK-10 renal | MDA-MB-231 breast | DU-145 prostate | HCT-15 colon | HCC-2998 colon | SF-268 CNS | K-562 leukemia | SR leukemia

C=C(C)C1=CCC[C@]2(C1)N=C(OC)[C@@H](C(C)C)N=C2OC
> 100 µM: SW-620 colon | HS 578T breast | OVCAR-4 ovarian | TK-10 renal | MDA-MB-231 breast | DU-145 prostate | HCT-15 colon | HCC-2998 colon | SF-268 CNS | SNB-75 CNS

O=C1CCCCC/C1=C\c1cccc(Cl)c1
> 100 µM: MDA-MB-231 breast | DU-145 prostate | HCT-15 colon | HCC-2998 colon | SNB-75 CNS | SR leukemia
60.1 µM: SW-620 colon
94.3 µM: HS 578T breast
83.3 µM: OVCAR-4 ovarian
68.2 µM: SF-268 CNS

Oc1ccccc1/C=C/c1csnn1
> 94.3 µM: HCT-15 colon
> 100 µM: SW-620 colon | OVCAR-4 ovarian | TK-10 renal | HCC-2998 colon | SF-268 CNS | SNB-75 CNS | K-562 leukemia
> 68 µM: SR leukemia

C=Cc1ccc(C)[n+](C[Si](C)(C)O[Si](C)(C)C)c1
> 100 µM: SW-620 colon | OVCAR-4 ovarian | HCT-15 colon | HCC-2998 colon | SF-268 CNS | SNB-75 CNS | K-562 leukemia | SR leukemia

COC(=O)[C@@H]1CN(C(C)=O)C(=O)N1
> 100 µM: SW-620 colon | HS 578T breast | OVCAR-4 ovarian | TK-10 renal | MDA-MB-231 breast | DU-145 prostate | HCT-15 colon | HCC-2998 colon | SF-268 CNS | SNB-75 CNS | K-562 leukemia

CCCCNc1nc(C#N)c(N)s1
> 100 µM: SW-620 colon | OVCAR-4 ovarian | TK-10 renal | HCT-15 colon | HCC-2998 colon | SF-268 CNS | SNB-75 CNS | K-562 leukemia | SR leukemia

CCSc1[nH]c(NC(=S)NC(=O)c2ccccc2Cl)c(C(N)=O)c1C(N)=O
> 10 µM: SW-620 colon | OVCAR-4 ovarian | TK-10 renal | MDA-MB-231 breast | DU-145 prostate | HCT-15 colon | HCC-2998 colon | SF-268 CNS | SNB-75 CNS | K-562 leukemia | SR leukemia

O=C(O)c1nc2cc(C(F)(F)F)ccc2nc1Nc1ccc(F)cc1
55 µM: SR leukemia
> 100 µM: TK-10 renal | SF-268 CNS | K-562 leukemia
70.8 µM: MDA-MB-231 breast
49.5 µM: SNB-75 CNS
68.8 µM: SW-620 colon
74.3 µM: HS 578T breast

O=C(c1cccs1)N(C(=S)N1CCN(c2ccccn2)CC1)c1ccccc1
> 100 µM: SW-620 colon | OVCAR-4 ovarian | TK-10 renal | HCT-15 colon | SF-268 CNS | SNB-75 CNS | K-562 leukemia | SR leukemia

O=c1[nH]c2cc([N+](=O)[O-])ccc2nc1/C(=N/Nc1ccccc1)C(O)c1ccccc1Cl (stereo unspecified)
> 100 µM: SW-620 colon | OVCAR-4 ovarian | TK-10 renal | SF-268 CNS | SNB-75 CNS | K-562 leukemia
36.3 µM: HCT-15 colon
64.5 µM: HCC-2998 colon

CC(=O)OC1COC(n2c(O)c(N=NC(N)=S)c3cc(Br)ccc32)C(OC(C)=O)C1OC(C)=O (stereo unspecified)
> 100 µM: SW-620 colon | OVCAR-4 ovarian | TK-10 renal | HCT-15 colon | HCC-2998 colon | SF-268 CNS | K-562 leukemia | SR leukemia

O=C1NC2ON=C(c3ccccc3)C2C2ON=C(c3ccccc3)N12 (stereo unspecified)
> 100 µM: HS 578T breast | TK-10 renal | MDA-MB-231 breast | DU-145 prostate | HCT-15 colon | HCC-2998 colon | SF-268 CNS | SNB-75 CNS

CC1C2(C)OC(=N)C(C#N)(C(c3ccccc3)O2)C1(C#N)C#N (stereo unspecified)
22.9 µM: HCT-15 colon
35.4 µM: MDA-MB-231 breast
> 100 µM: TK-10 renal | DU-145 prostate | SNB-75 CNS | K-562 leukemia
78.6 µM: HS 578T breast
22.7 µM: HCC-2998 colon
76.1 µM: SF-268 CNS

COC(=O)N/N=C(\Cc1ccccc1)CN(C)C
> 100 µM: SW-620 colon | TK-10 renal | HCC-2998 colon | SF-268 CNS | SNB-75 CNS | K-562 leukemia

O=C1/C(=C/c2cccc(Br)c2)CCc2ccccc21
26.7 µM: OVCAR-4 ovarian
35.9 µM: MDA-MB-231 breast
24.8 µM: HS 578T breast
24.1 µM: HCT-15 colon
29.9 µM: K-562 leukemia
31 µM: TK-10 renal
18.4 µM: SR leukemia
30.9 µM: DU-145 prostate
30 µM: SNB-75 CNS
17.9 µM: SW-620 colon
21.8 µM: SF-268 CNS

O=C(CSc1nnc(-c2ccc(N=Cc3ccc(Cl)cc3)cc2)o1)Nc1ccccc1[N+](=O)[O-]
> 100 µM: SW-620 colon | OVCAR-4 ovarian | TK-10 renal | HCT-15 colon | SF-268 CNS | SNB-75 CNS | K-562 leukemia | SR leukemia

COC(=O)C1(CCC(C)=O)CCCCCC1=O (stereo unspecified)
> 100 µM: SW-620 colon | OVCAR-4 ovarian | TK-10 renal | MDA-MB-231 breast | DU-145 prostate | HCT-15 colon | HCC-2998 colon | SF-268 CNS | SNB-75 CNS | K-562 leukemia | SR leukemia

Cc1cc2ccccc2n2c1nc1ccccc12
> 100 µM: SW-620 colon | HS 578T breast | TK-10 renal | DU-145 prostate | HCT-15 colon | HCC-2998 colon | SF-268 CNS | SNB-75 CNS | K-562 leukemia | SR leukemia

O=[N+]([O-])/C(C(Cl)=C(Cl)Cl)=C(\N1CCOCC1)n1nnc2ccccc21
42.4 µM: SNB-75 CNS
35.1 µM: MDA-MB-231 breast
63.8 µM: TK-10 renal
29.6 µM: HCT-15 colon
37.5 µM: DU-145 prostate
40 µM: SF-268 CNS
76.1 µM: OVCAR-4 ovarian

C/C(=N\NS(=O)(=O)c1ccc(C)cc1)C(CN1CCCCC1)C(c1ccccc1)c1c(O)c2ccccc2oc1=O (stereo unspecified)
> 100 µM: SW-620 colon | OVCAR-4 ovarian | TK-10 renal | HCT-15 colon | HCC-2998 colon | SF-268 CNS | SNB-75 CNS | K-562 leukemia | SR leukemia

NC(=O)N/N=C(\CC1OC(=O)c2ccccc21)c1ccco1 (stereo unspecified)
> 100 µM: SW-620 colon | OVCAR-4 ovarian | TK-10 renal | HCT-15 colon | HCC-2998 colon | SF-268 CNS | SNB-75 CNS | K-562 leukemia
